From PMC10598265, “Effects of the novel selective κ-opioid receptor agonist NP-5497-KA on morphine-induced reward-related behaviors” (Scientific Reports, 2023)
pEC50: −log10 of the molar value.

How the values were obtained:
MOP (μ-opioid receptor) = biological target: T1, MOP (μ-opioid receptor) (Homo sapiens, UniProt P35372); experiment: TR-FRET cAMP assay (LANCE Ultra), inhibition of forskolin-stimulated cAMP; format: cell-based
T1 construct: gene OPRM1; full-length receptor stably expressed in CHO-K1 cells (ChanTest)
T1 sequence (P35372 whole entry): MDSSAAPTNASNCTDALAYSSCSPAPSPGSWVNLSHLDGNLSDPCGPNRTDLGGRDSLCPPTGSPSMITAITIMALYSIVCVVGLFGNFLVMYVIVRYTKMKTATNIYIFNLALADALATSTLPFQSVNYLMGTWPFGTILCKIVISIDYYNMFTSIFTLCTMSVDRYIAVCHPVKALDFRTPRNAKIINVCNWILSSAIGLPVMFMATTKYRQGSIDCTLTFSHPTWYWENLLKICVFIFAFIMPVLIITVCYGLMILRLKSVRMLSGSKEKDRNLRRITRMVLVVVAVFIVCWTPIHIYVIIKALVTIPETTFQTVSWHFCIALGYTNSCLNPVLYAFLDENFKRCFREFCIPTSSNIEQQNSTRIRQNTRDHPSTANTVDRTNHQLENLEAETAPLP
Excerpt: TR-FRET cAMP assay (LANCE Ultra), inhibition of forskolin-stimulated cAMP on MOP (μ-opioid receptor)

DOP (δ-opioid receptor) = biological target: T2, DOP (δ-opioid receptor) (Homo sapiens, UniProt P41143); experiment: as above; format: cell-based
T2 construct: gene OPRD1; full-length receptor stably expressed in CHO-K1 cells (ChanTest)
T2 sequence (P41143 whole entry): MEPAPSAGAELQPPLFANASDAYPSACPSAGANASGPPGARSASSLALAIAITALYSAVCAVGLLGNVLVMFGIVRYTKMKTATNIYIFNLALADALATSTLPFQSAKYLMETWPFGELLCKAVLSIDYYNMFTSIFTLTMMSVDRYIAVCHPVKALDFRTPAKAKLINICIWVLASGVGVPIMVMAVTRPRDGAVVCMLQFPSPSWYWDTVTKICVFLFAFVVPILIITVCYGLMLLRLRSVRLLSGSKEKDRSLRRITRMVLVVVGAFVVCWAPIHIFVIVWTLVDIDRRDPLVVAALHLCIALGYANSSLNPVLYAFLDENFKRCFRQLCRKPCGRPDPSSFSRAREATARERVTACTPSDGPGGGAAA
Excerpt: TR-FRET cAMP assay (LANCE Ultra), inhibition of forskolin-stimulated cAMP on DOP (δ-opioid receptor)

CN(C(=O)/C=C/c1ccoc1)[C@@H]1CC[C@@]2(O)[C@H]3Cc4ccc(O)c5c4[C@@]2(CCN3CC2CC2)[C@H]1O5 [Nalfurafine]
pEC50 (MOP (μ-opioid receptor)): 8.11
pEC50 (DOP (δ-opioid receptor)): 6.88
